From BigSolDB 2.1

OCCOc1ccc2ccccc2c1-c1c(OCCO)ccc2ccccc12
solubility (mole fraction)
Details | 283.15 K | 288.15 K | 293.15 K | 298.15 K | 303.15 K | 308.15 K | 313.15 K | 318.15 K | 323.15 K
in acetone | 0.00658 | 0.00893 | 0.0121 | 0.0153 | 0.0212 | 0.027 | 0.0352 | 0.0441 | 0.0567
in ethyl acetate | 0.00227 | 0.00328 | 0.00464 | 0.00604 | 0.00802 | 0.0104 | 0.0133 | 0.0174 | 0.0229
in ethyl formate | 0.00207 | 0.00284 | 0.00399 | 0.00539 | 0.00721 | 0.00964 | 0.0123 | 0.0161 | 0.0209
in isobutanol | 0.000512 | 0.000733 | 0.00108 | 0.00147 | 0.00209 | 0.00291 | 0.00388 | 0.005 | 0.00655
in isobutyl acetate | 0.00105 | 0.00158 | 0.0022 | 0.00296 | 0.00396 | 0.00518 | 0.00692 | 0.00911 | 0.0117
in isopropanol | 0.000762 | 0.00102 | 0.00132 | 0.00187 | 0.00263 | 0.00351 | 0.00487 | 0.00649 | 0.00847
in methyl acetate | 0.00297 | 0.00423 | 0.00595 | 0.00778 | 0.0102 | 0.0137 | 0.0173 | 0.0218 | 0.0292
in n-butanol | 0.000873 | 0.00119 | 0.00168 | 0.00242 | 0.00317 | 0.00428 | 0.0058 | 0.00782 | 0.0109
in n-butyl acetate | 0.00136 | 0.00186 | 0.00286 | 0.00389 | 0.00486 | 0.00646 | 0.0086 | 0.0108 | 0.0144
in n-pentanol | 0.000827 | 0.00116 | 0.00163 | 0.00227 | 0.00303 | 0.00413 | 0.00551 | 0.00725 | 0.00966
in n-propanol | 0.00111 | 0.00143 | 0.00189 | 0.00268 | 0.00369 | 0.00494 | 0.00644 | 0.00847 | 0.012
in toluene | 0.000885 | 0.00122 | 0.00176 | 0.0025 | 0.00331 | 0.00447 | 0.00595 | 0.00794 | 0.0104
